The numbers were not newly measured in patent US6635277B2, “Composition for pulsatile delivery of diltiazem and process of manufacture” (Wockhardt Limited, priority 2000, dated 2003), which cites them from elsewhere.

The conditions of this series: in 0.1N HCl.

Molecules are shown by their SMILES.

`CCCCCCCCCCCCOS(=O)(=O)[O-].[Na+]` [sodium lauryl sulfate]: the Fraction ionized is 10%.
